Experiment [1] deals with Candida albicans (ATCC no. 10231). The experiment in a line: MIC determination by broth microdilution (NCCLS), visual scoring. The class given is cell-based. As to conditions: for MIC80: Candida albicans, ATCC10231, read-out: MIC80 C. albicans. In outline:
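NCCLS broth microdilution in RPMI 1640 with 10 mM HEPES, final compound 0.5–128 μg/mL, DMSO ≤1%. Inoculum from 0.5 McFarland stock diluted 1:50; incubated 35 °C for 48–72 h. MIC scored visually as lowest concentration giving ~80% growth reduction versus drug-free wells.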
For orientation: In broth dilution the organism is exposed to a series of concentrations in liquid medium.

Experiment [2] deals with Candida glabrata (ATCC no. 48435). The experiment is described as above. The class given is cell-based. As to conditions: for MIC80: Nakaseomyces glabratus, ATCC48435, read-out: MIC80 C. glabrata.
[3] abbreviates: Table 3, 5-Alkylated Pyrimidinetriones.
Where [4] appears, read: Table 4, 5,5-Dialkylated Pyrimidinetriones.
The mark [5] stands for this setting: Table 8, N-Acylhydrazones of 5-Acylpyrimidinetriones.
Setting [6] is: Table 5, Schiff Bases of 5-acylpyrimidinetriones.

In brackets after ≈: the same amount, converted by molar mass.

24 compounds from patent US20160235752A1, “COMPOSITIONS, METHODS OF USE, AND METHODS OF TREATMENT” (THE UNIVERSITY OF NEW ORLEANS, priority 2013, published 2016) can be followed below.

For the compound `O=C1NC(=O)C(Cc2ccc3ccccc3c2)C(=O)N1` [BA69], the “MIC80 C. albicans” value in experiment [1] (setting [3]) is on record as “— (none of the 5-acyl-2,4,6-pyrimidinetriones, 5-alkylated pyrimidinetriones or the 5,5-dialkylated pyrimidinetriones showed antifungal activity through 125 μg/mL)”. Besides, the “MIC80 C. glabrata” value in experiment [2] (setting [3]) is listed as “— (none of the 5-acyl-2,4,6-pyrimidinetriones, 5-alkylated pyrimidinetriones or the 5,5-dialkylated pyrimidinetriones showed antifungal activity through 125 μg/mL)”.
As for `O=C1NC(=O)C(Cc2ccccc2)(Cc2ccccc2)C(=O)N1` [BA70], the “MIC80 C. albicans” value in experiment [1] (setting [4]) is “— (none of the 5-acyl-2,4,6-pyrimidinetriones, 5-alkylated pyrimidinetriones or the 5,5-dialkylated pyrimidinetriones showed antifungal activity through 125 μg/mL)”. In addition, the “MIC80 C. glabrata” value in experiment [2] (setting [4]) is “— (none of the 5-acyl-2,4,6-pyrimidinetriones, 5-alkylated pyrimidinetriones or the 5,5-dialkylated pyrimidinetriones showed antifungal activity through 125 μg/mL)”.
As for `CN(C)c1ccc(CC2(Cc3ccc(N(C)C)cc3)C(=O)NC(=O)NC2=O)cc1` [BA71], in experiment [1] (setting [4]), the “MIC80 C. albicans” value was “— (none of the 5-acyl-2,4,6-pyrimidinetriones, 5-alkylated pyrimidinetriones or the 5,5-dialkylated pyrimidinetriones showed antifungal activity through 125 μg/mL)”. The “MIC80 C. glabrata” value in experiment [2] (setting [4]) was “— (none of the 5-acyl-2,4,6-pyrimidinetriones, 5-alkylated pyrimidinetriones or the 5,5-dialkylated pyrimidinetriones showed antifungal activity through 125 μg/mL)”.
As for `CN(C)c1ccc(CC2(CCCc3ccccc3)C(=O)NC(=O)NC2=O)cc1` [BA72], the “MIC80 C. albicans” value in experiment [1] (setting [4]) was “— (none of the 5-acyl-2,4,6-pyrimidinetriones, 5-alkylated pyrimidinetriones or the 5,5-dialkylated pyrimidinetriones showed antifungal activity through 125 μg/mL)”. Besides, the “MIC80 C. glabrata” value in experiment [2] (setting [4]) was “— (none of the 5-acyl-2,4,6-pyrimidinetriones, 5-alkylated pyrimidinetriones or the 5,5-dialkylated pyrimidinetriones showed antifungal activity through 125 μg/mL)”.
For the compound `CN1C(=O)C(/C=N/Nc2ccccc2)C(=O)N(C)C1=O` [BA73, 1,3-dimethyl-5-[(E)-(2-phenylhydrazinylidene)methyl]pyrimidine-2,4,6-trione], the MIC80 (as a rule, an inhibitory concentration at the 80% level, which refers to growth in some studies and to a panel of isolates in others) in experiment [1] stood at 4 µg/mL (≈ 14.6 µM); in experiment [2], 2 µg/mL (≈ 7.29 µM).
On to `O=C1NC(=O)C(/C=N/Nc2ccccc2)C(=O)N1` [BA74, 5-[(E)-(2-phenylhydrazinylidene)methyl]pyrimidine-2,4,6-trione], for which the MIC80 in experiment [1] is 4 µg/mL (≈ 16.2 µM); in experiment [2] it was 2 µg/mL (≈ 8.12 µM).
Turning to `COC(=O)NN=C(C)C1C(=O)N(C)C(=O)N(C)C1=O` [BA75], the “MIC80 C. albicans” value in experiment [1] (setting [5]) is on record as “— (none of the 5-acyl-2,4,6-pyrimidinetriones, 5-alkylated pyrimidinetriones or the 5,5-dialkylated pyrimidinetriones showed antifungal activity through 125 μg/mL)”. Also, the “MIC80 C. glabrata” value in experiment [2] (setting [5]) is recorded as “— (none of the 5-acyl-2,4,6-pyrimidinetriones, 5-alkylated pyrimidinetriones or the 5,5-dialkylated pyrimidinetriones showed antifungal activity through 125 μg/mL)”.
In the case of `COC(=O)NN=CC1C(=O)N(C)C(=O)N(C)C1=O` [BA76], the “MIC80 C. albicans” value in experiment [1] (setting [5]) is recorded as “— (none of the 5-acyl-2,4,6-pyrimidinetriones, 5-alkylated pyrimidinetriones or the 5,5-dialkylated pyrimidinetriones showed antifungal activity through 125 μg/mL)”. In addition, the “MIC80 C. glabrata” value in experiment [2] (setting [5]) is “— (none of the 5-acyl-2,4,6-pyrimidinetriones, 5-alkylated pyrimidinetriones or the 5,5-dialkylated pyrimidinetriones showed antifungal activity through 125 μg/mL)”.
In the case of `COC(=O)NN=CC1C(=O)NC(=O)NC1=O` [BA77], in experiment [1] (setting [5]), the “MIC80 C. albicans” value was “— (none of the 5-acyl-2,4,6-pyrimidinetriones, 5-alkylated pyrimidinetriones or the 5,5-dialkylated pyrimidinetriones showed antifungal activity through 125 μg/mL)”. The “MIC80 C. glabrata” value in experiment [2] (setting [5]) is “— (none of the 5-acyl-2,4,6-pyrimidinetriones, 5-alkylated pyrimidinetriones or the 5,5-dialkylated pyrimidinetriones showed antifungal activity through 125 μg/mL)”.
As for `CN1C(=O)C(C=Nc2ccc(O)cc2)C(=O)N(C)C1=O` [BA79], in experiment [1] (setting [6]), the “MIC80 C. albicans” value is given as “— (none of the 5-acyl-2,4,6-pyrimidinetriones, 5-alkylated pyrimidinetriones or the 5,5-dialkylated pyrimidinetriones showed antifungal activity through 125 μg/mL)”. For the same compound, in experiment [2] (setting [6]), the “MIC80 C. glabrata” value is recorded as “— (none of the 5-acyl-2,4,6-pyrimidinetriones, 5-alkylated pyrimidinetriones or the 5,5-dialkylated pyrimidinetriones showed antifungal activity through 125 μg/mL)”.
As for `CC(=Nc1ccc(O)cc1)C1C(=O)N(C)C(=O)N(C)C1=O` [BA80], the “MIC80 C. albicans” value in experiment [1] (setting [6]) is “— (none of the 5-acyl-2,4,6-pyrimidinetriones, 5-alkylated pyrimidinetriones or the 5,5-dialkylated pyrimidinetriones showed antifungal activity through 125 μg/mL)”. The “MIC80 C. glabrata” value in experiment [2] (setting [6]) is “— (none of the 5-acyl-2,4,6-pyrimidinetriones, 5-alkylated pyrimidinetriones or the 5,5-dialkylated pyrimidinetriones showed antifungal activity through 125 μg/mL)”.
On to `O=C1NC(=O)C(C=Nc2ccc(O)cc2)C(=O)N1` [BA81], for which the “MIC80 C. albicans” value in experiment [1] (setting [6]) is listed as “— (none of the 5-acyl-2,4,6-pyrimidinetriones, 5-alkylated pyrimidinetriones or the 5,5-dialkylated pyrimidinetriones showed antifungal activity through 125 μg/mL)”. For the same compound, the “MIC80 C. glabrata” value in experiment [2] (setting [6]) is given as “— (none of the 5-acyl-2,4,6-pyrimidinetriones, 5-alkylated pyrimidinetriones or the 5,5-dialkylated pyrimidinetriones showed antifungal activity through 125 μg/mL)”.
Consider `CN1C(=O)C(C=Nc2ccncc2)C(=O)N(C)C1=O` [BA82], for which the “MIC80 C. albicans” value in experiment [1] (setting [6]) is on record as “— (none of the 5-acyl-2,4,6-pyrimidinetriones, 5-alkylated pyrimidinetriones or the 5,5-dialkylated pyrimidinetriones showed antifungal activity through 125 μg/mL)”. Moreover, the “MIC80 C. glabrata” value in experiment [2] (setting [6]) is reported as “— (none of the 5-acyl-2,4,6-pyrimidinetriones, 5-alkylated pyrimidinetriones or the 5,5-dialkylated pyrimidinetriones showed antifungal activity through 125 μg/mL)”.
In the case of `O=C1NC(=O)C(C=Nc2ccncc2)C(=O)N1` [BA83], the “MIC80 C. albicans” value in experiment [1] (setting [6]) is reported as “— (none of the 5-acyl-2,4,6-pyrimidinetriones, 5-alkylated pyrimidinetriones or the 5,5-dialkylated pyrimidinetriones showed antifungal activity through 125 μg/mL)”. In experiment [2] (setting [6]), the “MIC80 C. glabrata” value was “— (none of the 5-acyl-2,4,6-pyrimidinetriones, 5-alkylated pyrimidinetriones or the 5,5-dialkylated pyrimidinetriones showed antifungal activity through 125 μg/mL)”.
For the compound `CC(=Nc1ccncc1)C1C(=O)N(C)C(=O)N(C)C1=O` [BA84], in experiment [1] (setting [6]), the “MIC80 C. albicans” value is recorded as “— (none of the 5-acyl-2,4,6-pyrimidinetriones, 5-alkylated pyrimidinetriones or the 5,5-dialkylated pyrimidinetriones showed antifungal activity through 125 μg/mL)”. The “MIC80 C. glabrata” value in experiment [2] (setting [6]) is reported as “— (none of the 5-acyl-2,4,6-pyrimidinetriones, 5-alkylated pyrimidinetriones or the 5,5-dialkylated pyrimidinetriones showed antifungal activity through 125 μg/mL)”.
Regarding `C/C(=N\Nc1ccccc1)C1C(=O)NC(=O)NC1=O` [BA85, 5-[(1E)-1-(2-phenylhydrazinylidene)ethyl]pyrimidine-2,4,6-trione], the MIC80 in experiment [1] and in experiment [2] was 2 µg/mL (≈ 7.68 µM) each time.
Regarding `COC(=O)NN=C(C)C1C(=O)NC(=O)NC1=O` [BA86], the “MIC80 C. albicans” value in experiment [1] (setting [5]) is “— (none of the 5-acyl-2,4,6-pyrimidinetriones, 5-alkylated pyrimidinetriones or the 5,5-dialkylated pyrimidinetriones showed antifungal activity through 125 μg/mL)”. Besides, in experiment [2] (setting [5]), the “MIC80 C. glabrata” value is on record as “— (none of the 5-acyl-2,4,6-pyrimidinetriones, 5-alkylated pyrimidinetriones or the 5,5-dialkylated pyrimidinetriones showed antifungal activity through 125 μg/mL)”.
With `CC(=Nc1ccc(O)cc1)C1C(=O)NC(=O)NC1=O` [BA87], the “MIC80 C. albicans” value in experiment [1] (setting [6]) is on record as “— (none of the 5-acyl-2,4,6-pyrimidinetriones, 5-alkylated pyrimidinetriones or the 5,5-dialkylated pyrimidinetriones showed antifungal activity through 125 μg/mL)”. In addition, the “MIC80 C. glabrata” value in experiment [2] (setting [6]) is given as “— (none of the 5-acyl-2,4,6-pyrimidinetriones, 5-alkylated pyrimidinetriones or the 5,5-dialkylated pyrimidinetriones showed antifungal activity through 125 μg/mL)”.
For the compound `CC(=Nc1ccncc1)C1C(=O)NC(=O)NC1=O` [BA88], the “MIC80 C. albicans” value in experiment [1] (setting [6]) is on record as “— (none of the 5-acyl-2,4,6-pyrimidinetriones, 5-alkylated pyrimidinetriones or the 5,5-dialkylated pyrimidinetriones showed antifungal activity through 125 μg/mL)”. Moreover, the “MIC80 C. glabrata” value in experiment [2] (setting [6]) is reported as “— (none of the 5-acyl-2,4,6-pyrimidinetriones, 5-alkylated pyrimidinetriones or the 5,5-dialkylated pyrimidinetriones showed antifungal activity through 125 μg/mL)”.
With `O=C1NC(=O)C(C=Nc2ccccc2)C(=O)N1` [BA89], the “MIC80 C. albicans” value in experiment [1] (setting [6]) is on record as “— (none of the 5-acyl-2,4,6-pyrimidinetriones, 5-alkylated pyrimidinetriones or the 5,5-dialkylated pyrimidinetriones showed antifungal activity through 125 μg/mL)”. Moreover, the “MIC80 C. glabrata” value in experiment [2] (setting [6]) is listed as “— (none of the 5-acyl-2,4,6-pyrimidinetriones, 5-alkylated pyrimidinetriones or the 5,5-dialkylated pyrimidinetriones showed antifungal activity through 125 μg/mL)”.
On to `CN1C(=O)C(C=Nc2ccccc2)C(=O)N(C)C1=O` [BA90], for which, in experiment [1] (setting [6]), the “MIC80 C. albicans” value is on record as “— (none of the 5-acyl-2,4,6-pyrimidinetriones, 5-alkylated pyrimidinetriones or the 5,5-dialkylated pyrimidinetriones showed antifungal activity through 125 μg/mL)”. In addition, the “MIC80 C. glabrata” value in experiment [2] (setting [6]) was “— (none of the 5-acyl-2,4,6-pyrimidinetriones, 5-alkylated pyrimidinetriones or the 5,5-dialkylated pyrimidinetriones showed antifungal activity through 125 μg/mL)”.
On to `CC(=Nc1ccccc1)C1C(=O)N(C)C(=O)N(C)C1=O` [BA91], for which the “MIC80 C. albicans” value in experiment [1] (setting [6]) is given as “— (none of the 5-acyl-2,4,6-pyrimidinetriones, 5-alkylated pyrimidinetriones or the 5,5-dialkylated pyrimidinetriones showed antifungal activity through 125 μg/mL)”. For the same compound, the “MIC80 C. glabrata” value in experiment [2] (setting [6]) was “— (none of the 5-acyl-2,4,6-pyrimidinetriones, 5-alkylated pyrimidinetriones or the 5,5-dialkylated pyrimidinetriones showed antifungal activity through 125 μg/mL)”.
With `CC(=Nc1ccccc1)C1C(=O)NC(=O)NC1=O` [BA92], the “MIC80 C. albicans” value in experiment [1] (setting [6]) is “— (none of the 5-acyl-2,4,6-pyrimidinetriones, 5-alkylated pyrimidinetriones or the 5,5-dialkylated pyrimidinetriones showed antifungal activity through 125 μg/mL)”. For the same compound, the “MIC80 C. glabrata” value in experiment [2] (setting [6]) is on record as “— (none of the 5-acyl-2,4,6-pyrimidinetriones, 5-alkylated pyrimidinetriones or the 5,5-dialkylated pyrimidinetriones showed antifungal activity through 125 μg/mL)”.
Turning to `O=C1NC(=O)C(C=Nc2ccccc2O)C(=O)N1` [BA93], in experiment [1] (Schiff base derivatives, Table 5), the “inhibitory activity of Candida albicans” value is listed as “showed inhibitory activity”. The “MIC80 C. albicans” value in experiment [1] (Table 5, values marked *: compound displayed MIC with <50% inhibition) was 8* μg/mL. Besides, in experiment [2] (setting [6]), the “MIC80 C. glabrata” value is recorded as “— (none of the 5-acyl-2,4,6-pyrimidinetriones, 5-alkylated pyrimidinetriones or the 5,5-dialkylated pyrimidinetriones showed antifungal activity through 125 μg/mL)”.
